Consider five compounds from US20230416265A1, “COMPOUNDS FOR THE DETECTION OF HEME OXYGENASE 1 (HO-1), AND METHODS AND USES INVOLVING THE SAME” (IMPERIAL COLLEGE INNOVATIONS LIMITED, priority 2020, published 2023).

“And” between values parts separate entries of the source, which are not always exact repeats. Equal entries are not always repeated.

The nature of series [1]: Photophysical studies in PBS buffer pH 7.4. The format is physicochemical. Conditions: for E [%] (FRET efficiency): PBS buffer pH 7.4, 20 μM, 298 K; for Ø514 nm [%] (quantum yield): PBS buffer pH 7.4, 298 K, ± 20%, standard H2TPP in toluene (Ø514 nm = 0.11). Here is the method: (§1) UV-Visible absorption spectra were measured using an Agilent Technologies Cary 60 Spectrophotometer operating with VVinUV software. The sample was held in a quartz cuvette with a path length of 1 cm. Absorption spectra were recorded against a baseline of pure solvent in an optically matched cuvette with a scan rate of 600 nm/min and a data interval of 1.0 nm. Emission and excitation spectra were acquired on an Agilent Technologies Carry Eclipse Fluorescence Spectrophotometer, in quartz cuvettes with a path length of 1 cm. Emission and excitation spectra were collected with a scan rate of 120.0 nm/min, a delay interval of 1.0 nm and band-passes of 5 nm.
Measurements were recorded in aqueous solutions of PBS buffer at pH 7.4 in order to mimic physiological conditions.
(§2) In the examples highlighted above, the sample concentration was […] in PBS buffer and 10 pM in chloroform. All measurements were performed at 298 K.

A short description of series [2]: Photophysical studies in PBS buffer pH 7.4. Type of series: physicochemical. The note with it: PBS buffer pH 7.4, 20 μM, λex = 320 nm, 298 K.
Series [3] in a line: Photophysical studies in chloroform. Conditions: 298 K; for Ø514 nm [%] (quantum yield): ± 20%, standard H2TPP in toluene (Ø514 nm = 0.11); for E [%] (FRET efficiency) / Emission λmax [nm]: λex = 320 nm. The format is physicochemical. Here is the method:
as §1, with “5 nm. […]” for “5 nm.”
as §2

The target of series [4] is T1, HO-1 (Homo sapiens, UniProt P09601).
T1 construct: made in house; host or cells: E. coli (lysate)
T1 sequence (P09601 1-288): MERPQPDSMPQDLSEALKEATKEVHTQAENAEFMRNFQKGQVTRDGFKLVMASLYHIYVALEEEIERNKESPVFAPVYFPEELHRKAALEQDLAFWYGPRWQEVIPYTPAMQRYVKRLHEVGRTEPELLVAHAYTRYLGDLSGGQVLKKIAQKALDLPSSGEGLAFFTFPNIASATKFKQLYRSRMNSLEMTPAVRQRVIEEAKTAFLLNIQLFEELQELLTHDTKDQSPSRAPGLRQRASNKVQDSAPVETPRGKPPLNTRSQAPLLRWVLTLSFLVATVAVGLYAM
Kind of series: Control experiment: quenching of coumarin 1i fluorescence on addition of HO-1 in E. coli lysates. The format is biochemical. Conditions: λex = 320 nm.

`Cc1cc(=O)oc2cc(OCCOc3ccc(-c4c5nc(c(-c6ccccc6)c6ccc([nH]6)c(-c6ccccc6)c6nc(c(-c7ccccc7)c7ccc4[nH]7)C=C6)C=C5)cc3)ccc12` [Compound C3g, reference compound]: the “E [%] (FRET efficiency)” value in series [1] (λex = 320 nm) came out at 96.8%; in series [3], 96.6%. Also, the “Ø514 nm [%] (quantum yield)” value in series [1] came to 2.0%; in series [3], 17.4%. Also, the “Emission λmax [nm]” value in series [2] is 383 nm; in series [3] it was 379 nm and 654 nm and 719 nm.

As to “Iron(11) dimethyl 3,3′-(3,7,8,12,13,17-hexamethyl-10-(4-(2-((4-methyl-2-oxo-2H-chromen-7-yl)oxy)ethoxy) phenyl)porp-hyrin-2,18-diyl)dipropionate [Compound 1h]”, the “porphyrin emission following Fe2+ complexation” value in series [1] (PBS buffer and chloroform, λex = 320 nm) is “completely quenched”. For the same compound, the “E [%] (FRET efficiency)” value in series [1] (λex = 320 nm) is 99.2%; in series [3] it was 98.7%. In addition, the “Emission λmax [nm]” value is 387 ^[b], [c] nm in series [2] and 385^[a], [b] nm in series [3].

With `COC(=O)CCC1=C(C)c2cc3[nH]c(c(C)c3C)c(-c3ccc(OCCOc4ccc5c(C)cc(=O)oc5c4)cc3)c3nc(cc4[nH]c(cc1n2)c(CCC(=O)OC)c4C)C(C)=C3C` [Compound 1g], the “E [%] (FRET efficiency)” value in series [1] (λex = 320 nm) was determined as 95.1%; in series [3] it was 99.7%. Moreover, the “Ø514 nm [%] (quantum yield)” value in series [1] is listed as 0.5%; in series [3], 5.2%. For the same compound, the “Emission λmax [nm]” value in series [2] is 387 nm; in series [3], 385 nm and 629 nm and 695 nm.

Turning to `Cc1cc(=O)oc2cc(OCCOc3ccc(C(=O)O)cc3)ccc12` [Compound 1i, 4-(2-((4-Methyl-2-oxo-2H-chromen-7-yl)oxy)ethoxy)benzoic acid], the “decrease in the emission intensity at 384 nm following addition of HO-1” value in series [4] was determined as 2.3 fold. The “Emission λmax [nm]” value in series [2] stood at 384 nm; in series [3] it was 381 nm.

As to `Cc1cc(=O)oc2cc(OCCBr)ccc12` [Compound 1f], the “Emission λmax [nm]” value was 384 nm and 383 ^[b] nm in series [2]; 382 nm in series [3].
